Results: ChEMBL document CHEMBL4017496 (J Med Chem, 2017)
Active and inactive are the calls of the source. The rule behind the calls is not given here.

Experiments:
[1] = target: T1, Oxysterols receptor LXR-beta (Homo sapiens) (UniProt P55055); experiment: Binding affinity to human LXRbeta at 4 uM by TR-FRET assay
T1 sequence (whole entry): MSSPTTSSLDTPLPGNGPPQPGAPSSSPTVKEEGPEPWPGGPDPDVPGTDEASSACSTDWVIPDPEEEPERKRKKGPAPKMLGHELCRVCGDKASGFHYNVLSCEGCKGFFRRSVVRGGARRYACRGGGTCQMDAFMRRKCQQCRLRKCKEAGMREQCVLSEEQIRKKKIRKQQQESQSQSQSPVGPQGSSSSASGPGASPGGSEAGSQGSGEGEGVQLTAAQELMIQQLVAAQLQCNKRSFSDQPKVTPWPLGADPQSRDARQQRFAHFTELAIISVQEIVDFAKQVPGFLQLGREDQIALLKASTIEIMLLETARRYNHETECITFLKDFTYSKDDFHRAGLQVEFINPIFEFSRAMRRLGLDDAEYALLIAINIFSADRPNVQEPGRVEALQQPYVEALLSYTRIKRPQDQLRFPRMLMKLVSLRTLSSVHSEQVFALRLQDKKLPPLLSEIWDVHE

[2] = target: T2, Oxysterols receptor LXR-alpha (Homo sapiens) (UniProt Q13133); experiment: Binding affinity to human LXRalpha at 4 uM by TR-FRET assay
T2 sequence (whole entry): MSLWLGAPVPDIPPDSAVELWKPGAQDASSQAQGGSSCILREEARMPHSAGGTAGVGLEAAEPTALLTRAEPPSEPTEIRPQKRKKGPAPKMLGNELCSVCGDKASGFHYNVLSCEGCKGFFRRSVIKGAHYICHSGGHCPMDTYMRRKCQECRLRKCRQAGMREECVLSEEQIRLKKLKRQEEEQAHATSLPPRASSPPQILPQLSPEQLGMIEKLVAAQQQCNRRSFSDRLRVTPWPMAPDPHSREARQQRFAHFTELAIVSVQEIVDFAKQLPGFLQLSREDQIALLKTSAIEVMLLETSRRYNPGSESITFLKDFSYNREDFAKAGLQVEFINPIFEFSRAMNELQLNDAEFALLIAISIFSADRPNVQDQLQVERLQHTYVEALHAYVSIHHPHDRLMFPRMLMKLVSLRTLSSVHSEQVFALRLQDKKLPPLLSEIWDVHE

[3] = target: T3, Peroxisome proliferator-activated receptor gamma (Homo sapiens) (UniProt P37231); experiment: Displacement of Fluormone-Pan-PPAR Green from human GST-tagged PPARgamma LBD at 4 uM by TR-FRET assay relative to control
T3 sequence (whole entry): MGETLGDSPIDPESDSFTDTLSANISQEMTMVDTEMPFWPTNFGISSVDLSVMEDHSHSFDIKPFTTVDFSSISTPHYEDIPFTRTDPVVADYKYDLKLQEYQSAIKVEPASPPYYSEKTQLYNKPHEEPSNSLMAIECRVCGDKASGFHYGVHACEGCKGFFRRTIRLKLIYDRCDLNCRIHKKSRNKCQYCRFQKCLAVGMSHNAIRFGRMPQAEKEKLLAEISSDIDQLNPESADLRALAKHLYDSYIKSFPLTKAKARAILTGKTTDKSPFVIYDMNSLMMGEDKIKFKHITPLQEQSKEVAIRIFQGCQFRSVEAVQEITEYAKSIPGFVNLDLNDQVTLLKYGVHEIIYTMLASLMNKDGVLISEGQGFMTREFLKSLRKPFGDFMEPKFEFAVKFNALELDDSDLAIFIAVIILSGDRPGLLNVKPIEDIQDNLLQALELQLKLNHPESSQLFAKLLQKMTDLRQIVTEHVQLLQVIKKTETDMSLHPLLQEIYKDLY

[4] = target: T4, Peroxisome proliferator-activated receptor delta (Homo sapiens) (UniProt Q03181); experiment: Displacement of Fluormone-Pan-PPAR Green from human GST-tagged PPARdelta LBD at 4 uM by TR-FRET assay relative to control
T4 sequence (whole entry): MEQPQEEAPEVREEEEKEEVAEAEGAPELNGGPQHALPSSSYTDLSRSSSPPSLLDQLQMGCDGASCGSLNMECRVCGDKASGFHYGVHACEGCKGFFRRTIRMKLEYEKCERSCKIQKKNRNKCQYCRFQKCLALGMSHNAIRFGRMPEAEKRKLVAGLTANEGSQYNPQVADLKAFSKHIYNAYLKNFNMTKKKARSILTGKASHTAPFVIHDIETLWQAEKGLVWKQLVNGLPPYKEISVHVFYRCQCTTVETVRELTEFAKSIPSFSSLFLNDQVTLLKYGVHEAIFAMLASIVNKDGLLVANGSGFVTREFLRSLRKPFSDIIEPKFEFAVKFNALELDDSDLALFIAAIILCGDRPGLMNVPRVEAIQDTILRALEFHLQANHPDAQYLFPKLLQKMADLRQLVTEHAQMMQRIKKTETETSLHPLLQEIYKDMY

[5] = target: T5, Glucocorticoid receptor (Homo sapiens) (UniProt P04150); experiment: Displacement of Fluormone-GS1 from human GST-tagged glucocorticoid receptor LBD at 4 uM by TR-FRET assay
T5 sequence (whole entry): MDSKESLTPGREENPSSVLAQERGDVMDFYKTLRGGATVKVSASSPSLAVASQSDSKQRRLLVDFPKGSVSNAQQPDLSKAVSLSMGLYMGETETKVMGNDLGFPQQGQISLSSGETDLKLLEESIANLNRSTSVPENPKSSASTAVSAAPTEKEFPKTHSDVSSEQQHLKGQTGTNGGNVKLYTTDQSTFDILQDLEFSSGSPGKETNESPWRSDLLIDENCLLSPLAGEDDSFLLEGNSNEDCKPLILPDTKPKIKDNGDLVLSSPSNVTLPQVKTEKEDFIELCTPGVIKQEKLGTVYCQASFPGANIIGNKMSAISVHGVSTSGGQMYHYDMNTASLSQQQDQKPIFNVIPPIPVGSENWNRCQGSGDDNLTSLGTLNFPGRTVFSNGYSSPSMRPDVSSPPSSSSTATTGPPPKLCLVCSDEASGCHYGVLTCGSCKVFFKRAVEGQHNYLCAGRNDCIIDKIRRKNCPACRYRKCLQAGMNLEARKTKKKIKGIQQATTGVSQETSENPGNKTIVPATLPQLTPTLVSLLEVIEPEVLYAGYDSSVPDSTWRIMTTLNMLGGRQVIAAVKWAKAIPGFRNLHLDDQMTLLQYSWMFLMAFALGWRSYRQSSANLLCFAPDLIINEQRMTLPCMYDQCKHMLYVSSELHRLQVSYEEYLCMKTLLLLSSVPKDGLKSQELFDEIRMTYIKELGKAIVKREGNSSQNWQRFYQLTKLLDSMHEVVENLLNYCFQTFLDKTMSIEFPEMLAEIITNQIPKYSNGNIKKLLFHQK

[6] = target: T6, Peroxisome proliferator-activated receptor alpha (Homo sapiens) (UniProt Q07869); experiment: Displacement of Fluormone-Pan-PPAR Green from human GST-tagged PPARalpha LBD at 20 uM by TR-FRET assay relative to control
T6 sequence (whole entry): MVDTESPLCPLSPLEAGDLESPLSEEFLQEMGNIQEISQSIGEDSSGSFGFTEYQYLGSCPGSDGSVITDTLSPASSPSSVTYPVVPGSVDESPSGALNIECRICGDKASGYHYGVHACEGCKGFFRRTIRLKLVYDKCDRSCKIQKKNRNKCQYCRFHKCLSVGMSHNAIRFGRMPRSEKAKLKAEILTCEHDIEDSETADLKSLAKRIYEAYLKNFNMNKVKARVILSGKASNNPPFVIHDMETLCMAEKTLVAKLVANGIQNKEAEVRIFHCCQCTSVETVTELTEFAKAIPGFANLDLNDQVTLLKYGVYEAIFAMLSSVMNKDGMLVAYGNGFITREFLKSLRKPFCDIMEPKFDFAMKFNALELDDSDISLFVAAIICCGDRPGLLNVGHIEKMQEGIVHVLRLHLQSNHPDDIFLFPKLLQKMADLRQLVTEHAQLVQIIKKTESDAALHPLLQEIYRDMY

[7] = target: T3, Peroxisome proliferator-activated receptor gamma (Homo sapiens); experiment: (§1) Displacement of Fluormone-Pan-PPAR Green from human GST-tagged PPARgamma LBD by TR-FRET assay
[8] = target: T7, Peroxisome proliferator-activated receptor gamma (Homo sapiens, UniProt P37231); experiment: as §1
T7 sequence (P37231 whole entry): T3 sequence (whole entry)

[9] = target: T8, Peroxisome proliferator-activated receptor delta (Homo sapiens, UniProt Q03181); experiment: Displacement of Fluormone-Pan-PPAR Green from human GST-tagged PPARdelta LBD by TR-FRET assay
T8 sequence (Q03181 whole entry): T4 sequence (whole entry)

[10] = Induction of adipogenesis in human bone marrow-derived mesenchymal stem cells assessed as adiponectin level at 20 uM measured on day 7 after 48 hrs by ELISA; assay type: functional, Mesenchymal stem cell
[11] = Induction of adipogenesis in human bone marrow-derived mesenchymal stem cells assessed as adiponectin level at 4 uM measured on day 7 after 48 hrs by ELISA; assay type: functional, Mesenchymal stem cell
[12] = target: T6, Peroxisome proliferator-activated receptor alpha (Homo sapiens); experiment: Displacement of Fluormone-Pan-PPAR Green from human GST-tagged PPARalpha LBD at 4 uM by TR-FRET assay relative to control
[13] = test system: Mesenchymal stem cell; experiment: Inhibition of adipogenesis in human bone marrow-derived mesenchymal stem cells at 1 mM after 7 days in presence of IDX; assay type: functional, cell-based
[14] = test system: Mesenchymal stem cell; experiment: Inhibition of adipogenesis in human bone marrow-derived mesenchymal stem cells assessed as decrease in number and size of lipid droplets at 1 mM after 7 days in presence of IDX by oil red O staining based inverted microscopic method; assay type: functional

Activity [1] | Activity [2] | inhibition [3] | inhibition [4] | inhibition [5] | inhibition [6] | inhibition [7] | Ki [8] | Ki [9] | inhibition [12] | Compound | Activity [10] | Activity [11] | inhibition [13] | inhibition [14]
inactive | inactive | 59% | 75% | inactive | 46.5% | Dose-dependent effect | 2180 nM | 430 nM | inactive | CNC(=O)[C@H]1O[C@@H](n2cnc3c(NCc4cccc(I)c4)nc(Cl)nc32)[C@H](O)[C@@H]1O [NAMODENOSON] | 603 pg/mL | 221 pg/mL | – | –
– | – | – | – | – | – | – | – | – | – | Cn1c(=O)c2c(ncn2C)n(C)c1=O | – | – | Active | Active
